In patent US20140051729A1, “COMPOSITIONS AND METHODS FOR TREATING DEGENERATIVE MUSCLE CONDITIONS” (University of Washington, priority 2011, published 2014):

What was measured:
[1] = system: dystrophic flies (w; +/+; Dys^det1/Dys^det1); assay: Myofibril analysis of muscle wasting in dystrophic flies fed S1P promoting agents; assay type: in vivo, Drosophila; details: 217 μM in feed, three feeding cycles
Procedure: The effect of THI, a derivative of THI ((E)-1-(4-((1R,2S,3R)-1,2,3,4-tetrahydroxybutyl)-1H-imidazol-2-yl)-ethanone oxime) (“THI-oxime”), and a sphingosine analog (FTY720) on muscle wasting in dystrophic Drosopila flies was observed. Before feeding, 4 day old dystrophic flies (genotype: w; +/+; Dys^det1/Dys^det1) were placed in empty vials and starved for 6 hours. The flies were then provided access to one of a solution of 0.05 mg/mL (217 μM) 2-Acetyl-4(5)-tetrahydroxybutyl Imidazole (THI), or 217 μM FTY720, or 217 μM THI-oxime, in 5% light corn syrup in water for 16-18 hrs. After feeding, the flies were placed in new yeasted vials for 6-7 hrs. Flies were then transferred to empty vials with access to a 217 μM solution of THI, FTY720 or THI-oxime in a 5% light corn syrup in water for 16-18 hrs. This feeding cycle was repeated for a third time. After feeding for three cycles, the flies were placed in new yeasted vials. The 7-day old flies that had been administered the THI-oxime were analyzed immediately after the last feeding. The flies that has been administered THI and FTY720 were analyzed as 10-day old flies, three days after the last feeding with THI and FTY720.
Myofibril immunochemistry analysis was performed as disclosed herein. For each treatment group, 5 flies were analyzed, and 3 muscles per fly and 2 myofibrils per muscle were analyzed. Two tailed Student's t test was used to evaluate significance.
Flies were dipped in 95% EtOH and then dissected in 1×PBS (pH 7.4). Heads and abdomens were removed, and the thoraxes opened. Samples were stained using a modified ovary staining protocol 3. Samples were then fixed in 5% paraformaldehyde (Electron Microscopy Sciences) for 1 hour, rinsed in PBT (PBS/0.2% Triton X-100 v/v) 4 times, and then blocked for 1 hour in PBTB (PBT, 0.4% BSA w/v, 5% Normal Goat Serum v/v) at room temperature. […] For each genotype, 4-5 flies were analyzed, and 6-7 muscles per fly were analyzed.

A/J mice = assay: S1P in dysferlinopathy model after CTX injury (picrosirius red fibrosis); assay type: in vivo, mouse; details: A/J mice 9 month old, S1P intramuscular daily three days, 6 days post injury, vs vehicle
Procedure: The A/J mouse strain (JAX Mice, Bar Habor, Me.) lacks dysferlin and is a model for dysferlinopathy. The effects of S1P treatment of A/J mice was examined following CTX induced acute injury. CTX was applied to both TA muscles (2× male, 2× female, 9 month old), then S1P was injected intramuscularly into left TAs and a vehicle control (saline) in right TAs daily for the first three days following CTX injury. The TAs were harvested and examined for muscle fibrosis (picrosirius red staining) 6 days post injury.
Right and left TAs of three, 3 month old male mdx4cv:Myf5nlacZ/+ were injected with […] cardiotoxin (Calbiochem) in PBS from Naja nigrcollis. For the dysferlinopathy study, right and left TAs of 9 month old male and female A/J mice (JAX Mice, Bar Harbor, Me.) were injected with […] cardiotoxin (Calbiochem) in PBS from Naja nigrcollis. S1P (Enzo; Calbiochem) preparation was done according to manufacturer's instructions. Briefly, S1P was dissolved in methanol (0.5 mg/ml) and aliquoted, then the solvent was evaporated with a stream of nitrogen to deposit a thin film on the inside of the tube. […]
All mouse muscles were frozen directly in OCT with liquid nitrogen cooled in isopentane and sections of 8 μm thickness were obtained. […] Staining quantifications were all done using ImageJ v1.40 (Wayne Rasband, NIH) cell counter plugin (Kurt De Vos, University of Sheffield). […]

Akt/mTOR signaling = assay: Western blot of uninjured TA muscle of mdx mice after intramuscular S1P; assay type: in vivo, mouse; details: three days of daily S1P injections, vs vehicle TA
Procedure: To discern if the S1P dependent increase in mdx muscle fiber size was due to hypertrophy, the activation of Akt/mTOR signaling was examined. S1P induced hypertrophy has been described in cultured cardiomyocytes, which was accompanied by activation of Akt and S6 kinase. In turn, Akt and mTOR signaling via S6 kinase, an activator of ribosomal S6 implicated in protein synthesis, has been described as sufficient to induce skeletal muscle hypertrophy. Therefore it was determined if the increase in muscle fibers by S1P was mediated by Akt/mTOR signaling. Since THI induces a S1P increase throughout the body, S1P was administered directly into muscle in mdx mice and levels of activated/phosphorylated Akt, mTOR, and S6 were measured. S1P was injected directly into uninjured TA muscle to measure potential effects on these pathways in the absence of injury. As before, S1P was injected into left TAs and vehicle into right TAs of the same animals (FIG. 6a). […]
Tissue for western blot analysis was snap frozen in liquid nitrogen and subsequently homogenized. […] Protein extracts were separated using BioRad Tris-HCl ready gels 4-20% linear gradient and transferred to polyvinylidene difluoride (PVDF) membranes with a wet transfer system (BioRad). […] The signals were detected using an enhanced chemiluminescence kit (Millipore) and CL-XPosure Films (Thermo Scientific) were analyzed using ImageJ.

mdx:myf5^nlacz/+ mice = assay: Intramuscular S1P after CTX injury in mdx:Myf5nlacZ/+ mice (x-gal, myogenin, eMyHC staining); assay type: in vivo, mouse
Procedure: S1P is involved in muscle satellite cell turnover, myoblast differentiation, and muscle regeneration in non-diseased mice. […] The effects of S1P treatment were examined following CTX induced acute injury in dystrophic muscles. To identify myogenic cells, mdx:myf5^nlacz/+ mice were used carrying the nuclear lacZ reporter driven by the endogenous Myf5 gene. CTX was applied to both TA muscles (n=3 mice, 3 month-old mdx:myf5^nlacz/+ males), then S1P was injected intramuscularly into left TAs and a vehicle control into right TAs daily for the first three days following injury. TAs were harvested on day 4 post injury for analysis of β-galactosidase positive (Myf5+) nuclei.
Right and left TAs of three, 3 month old male mdx4cv:Myf5nlacZ/+ were injected with […] cardiotoxin (Calbiochem) in PBS from Naja nigrcollis. For the dysferlinopathy study, right and left TAs of 9 month old male and female A/J mice (JAX Mice, Bar Harbor, Me.) were injected with […] cardiotoxin (Calbiochem) in PBS from Naja nigrcollis. S1P (Enzo; Calbiochem) preparation was done according to manufacturer's instructions. Briefly, S1P was dissolved in methanol (0.5 mg/ml) and aliquoted, then the solvent was evaporated with a stream of nitrogen to deposit a thin film on the inside of the tube. Aliquots were dissolved with 4 mg/ml BSA (fatty acid free) to make 500 uM stocks. Directly following cardiotoxin injection, 500 uM S1P in PBS with 4 mg/ml BSA was injected in left TAs (20 ul), daily until day 3 post-injury at which time animals were euthanized and muscles were harvested for freezing. Right TAs were injected with an equal volume of PBS with 4 mg/ml BSA as vehicle controls. In a separate experiment TAs of four 2.5 month-old female mdx4cv were injected with S1P or vehicle under the same conditions stated above, in the absence of injury.
All mouse muscles were frozen directly in OCT with liquid nitrogen cooled in isopentane and sections of 8 μm thickness were obtained. Tissue for x-gal staining, was fixed for 10 min with 2% formaldehyde/0.2% glutaraldehyde and incubated overnight at 37° C. with staining buffer (PBS with 1 mg/ml x-gal, 5 mM potassium ferricyanide, 5 mM potassium ferrocyanide, and 2 mM […] (all from Fisher). Oil Red-O and Picrosirius red staining were done following established protocols. For eMyHC staining, tissue was first fixed with 2% formaldehyde for 5 min, treated with streptavidin/avidin blocking kit (Vector labs), and blocked with IgG block from M.O.M kit (Vector Labs) for 5 hrs at 4° C. Following blockade, concentrated mouse anti-eMyHC (clone F1.652 received at 357 μg/ml IgG) obtained from the developmental studies hybridoma bank (DHSB, University of Iowa) was administered at 1:400 dilution, overnight at 4° C. The remainder of the staining was done following mouse-on-mouse (M.O.M) kit staining instructions. For laminin staining tissue was also fixed with 2% formaldehyde for 5 min, and then treated with polyclonal rabbit anti-laminin (Sigma) for 1 hr at a 1:400 dilution in PBS+1% BSA. Following washes, Alexa Fluor 488 conjugated goat anti-rabbit IgG (Invitrogen) was administered at 1:800 dilution for 1 hr. Controls omitting the primary antibody were included with all staining. Staining quantifications were all done using ImageJ v1.40 (Wayne Rasband, NIH) cell counter plugin (Kurt De Vos, University of Sheffield). Calculations, statistics, and graphs were generated with Microsoft Excel. […]

mdx mice = assay: EDL muscle myography in mdx mice; assay type: in vivo, mouse; details: THI-oxime IP twice-daily two weeks, 75 ug per day, at 120 Hz; vehicle 58 at 100 Hz
Procedure: The effect of THI administration on muscle function and recovery in mdx mice was analyzed. The mice were injected intraperitoneally with THI in PBS or vehicle alone (PBS) twice-daily for two weeks. Total amount of THI delivered per day was 75 ug. Extensor digitorum longus (EDL) muscles were excised from the mice and equilibrated in ringer's solution with 95% O2/5% CO2 for a minimum of 15 minutes prior to stimulation. Myography was conducted using a DMT 820S myograph and data was recorded using PowerLab 4/30 acquisition system with LabChart Pro software v7.3.1 (both from ADI instruments, Colorado Springs, Colo.). Stimulations were conducted with a Grass Instrument S88X system (Grass Technologies, West Warwick, R.I.). Muscles were stimulated to establish optimal fiber length (Lf) and voltage at which maximum tetanic force was measured at 120 Hz within a 450 ms duration.
Specific force was calculated as previously described in Gregorevic P. et al. (Gregorevic P. et al., Muscle Nerve. 2004 September; 30(3):295-304, PMID#15318340) by normalizing to whole muscle cross-sectional area (CSA). CSA is the quotient of […] muscle mass over the optimal muscle length (Lo) which is defined as the product of muscle fiber length (Lf) with the fiber length ratio (0.44 for EDL) and mammalian muscle density (1.06).
Muscle recovery was measured after muscle was fatigued with stimulation over 6 minutes. […] Recovery was determined by examining muscle force at 5, 10, and 15 minutes after stimulation. […] Therefore, the administration of THI improved muscle recovery and function in dystrophic mice.
The effect of THI-oxime administration on muscle function and recovery in mdx mice was analyzed. The mice were injected intraperitoneally with THI-oxime (n=3) or PBS vehicle alone (n=4) twice-daily for two weeks and then analyzed between 1-4 days following the final day of injection. Total amount of THI-oxime delivered per day was 75 ug. Prior to euthanasia, the animals were anesthetized with 0.5 mg/g weight avertin diluted in PBS. EDL muscles were excised from the mice and equilibrated in ringer's solution (120 mM NaCl, 4.7 mM KCl, 3.15 mM MgCl2, 1.3 mM NaH2PO4, 25 mM NaHCO3, 11 mM Glucose, 1.25 mM CaCl2, pH 7.2) with 95% O2/5% CO2 for a minimum of 15 minutes prior to stimulation. All functional experiments were carried out with buffer solutions at 25° C. under constant oxygenation. Myography was conducted using a DMT 820S myograph and data was recorded using PowerLab 4/30 acquisition system with LabChart Pro software v7.3.1 (both from ADI instruments, Colorado Springs, Colo.). […] Muscles were stimulated to establish optimal fiber length (Lf) and voltage at which maximum tetanic force was measured at 120 Hz within a 450 ms duration. […]

Structure (SMILES): CCCCCCCCc1ccc(CCC(N)(CO)CO)cc1 [FTY720, 2-amino-2-[2-(4-octylphenyl)ethyl]propane-1,3-diol]
- wild-type myofibrils ([1]; 10-day old flies, three days after last feeding): 73.83%

Structure (SMILES): CCCCCCCCCCCCC/C=C/[C@@H](O)[C@@H](N)COP(=O)(O)O [S1P, Sphingosine-1-phosphate]
- average percentage of fibrosis in CTX injured TA muscles (A/J mice): significantly decreased
- levels of S6 and phosphorylated S6 (Akt/mTOR signaling): significantly increased
- levels of phosphorylated Akt and mTOR (Akt/mTOR signaling): not significantly higher
- numbers of Myf5+ nuclei in areas with severe CTX damage (mdx:myf5^nlacz/+ mice; S1P intramuscular daily for three days, TAs harvested day 4, vs vehicle TA): four-fold increase
- Myf5+ cells for the entire cross-sectional area of treated TA (mdx:myf5^nlacz/+ mice; S1P intramuscular daily for three days, day 4, vs vehicle TA): gross increase
- increase in the number of eMyHC+ fibers (mdx:myf5^nlacz/+ mice; S1P treated TAs vs vehicle): 3.6 fold
- size of regenerating myofibers (minimum diameter of largest eMyHC+ fibers) (mdx:myf5^nlacz/+ mice; S1P treated TAs vs vehicle): significantly greater
- number of myogenin positive nuclei (mdx:myf5^nlacz/+ mice; S1P treated vs vehicle treated CTX injured TAs): slightly higher but not significantly different

Structure (SMILES): C/C(=N\O)c1nc([C@@H](O)[C@H](O)[C@H](O)CO)c[nH]1 [THI-oxime, (E)-1-(4-((1R,2S,3R)-1,2,3,4-tetrahydroxybutyl)-1H-imidazol-2-yl)-ethanone oxime]
- wild-type myofibrils ([1]; 7-day old flies, negative control 39.05%): 67.62%
- maximum specific force of EDL muscle (mdx mice): 73 KN/m^2
